Test results: EP4434996A1, “MICELLES IN CANCER TREATMENT” (Commissariat à l'Energie Atomique et aux Energies …, priority 2023, dated 2024)
Entries after “also recorded” stand apart in the source; their conditions may differ.

Tests used:
[1] = Detection of singlet oxygen with DPBF under 740 nm irradiation; format: physicochemical
Procedure: Preparation of DPBF@C18-PEG2k and TPBC@C18-PEG2k. To a solution of C18-Fc-PEG2k (10 mg mL^-1) in water (1 mL) was added a solution of TPBC (bacteriochlorin) or DPBF (1,3-diphenylisobenzofuran) (12.5 µL, 1 mg mL^-1) in chloroform (1 mL). The mixture was sonicated using an ultrasound sonicator probe (power 40%, 10 min, pulse) allowing TPBC or DPBF to be gradually encapsulated by evaporation of chloroform via heating of the probe. The resulting TPBC/DPBF@C18-Fc-PEG2k colloidal suspension was filtered on 0.45 µm nylon membrane to eliminate any free TPBC or DPBF from the medium.
Preparation of TPBC-DPBF@C18-PEG2k. To a solution of C18-Fc-PEG2k (10 mg mL^-1) in water (1 mL) was added a solution of TPBC (12.5 µL, 1 mg mL^-1) in chloroform (1 mL). The mixture was sonicated using an ultrasound sonicator probe (power 40%, 10 min, pulse) allowing TPBC to be gradually encapsulated by evaporation of chloroform via heating of the probe. […]
1,3-Diphenylisobenzofuran (DPBF) is a reagent for detecting singlet oxygen. […] The reaction was monitored using UV-vis spectroscopy (Fig. 8B). […]
First, we ensured that both TPBC and DPBF could be encapsulated into our C18-PEG2k micelles individually. […] TPBC-DPBF@C18-PEG2k was then irradiated under 740 nm light and the photoreaction was monitored by UV-vis spectroscopy every 20 sec (Fig. 9C).

[2] = Solubility in water by UV measurement; format: physicochemical; conditions: without micelles

SMILES: c1ccc(-c2oc(-c3ccccc3)c3ccccc23)cc1 [DPBF, 1,3-diphenylisobenzofuran]
- stability of DPBF under NIR light ([1]; in DMSO, several minutes, without TPBC): no alteration was observed
- solubility in water [2]: not soluble in water; also recorded: insoluble in water

SMILES: c1ccc(-c2c3nc(c(-c4ccccc4)c4ccc([nH]4)c(-c4ccccc4)c4nc(c(-c5ccccc5)c5ccc2[nH]5)CC4)CC3)cc1 [TPBC, tetraphenylbacteriochlorin]
- time to complete degradation of DPBF ([1]; DPBF and TPBC in DMSO): 60 s
- solubility in water [2]: not soluble in water; also recorded: insoluble in water
